Measurements as given in patent publication US20240299334A1, “PHARMACEUTICAL COMPOSITION OF NAPHTHALENE DERIVATIVES AS MULTI-TARGETED THERAPEUTIC AGENTS FOR THE TREATMENT OF ALZHEIMER'S DISEASE” (CENTRO DE NEUROCIENCIAS DE CUBA, CNEURO, priority 2020, published 2024).

Tested on: amnesia induced by the acute administration of scopolamine
Assay: Object discrimination test, intranasal administration, acute ESC
Format: in vivo, mice
Conditions: nasal formulation, single intranasal dose (74 μg/kg); ESC 1.5 mg/kg ip; vs control groups
Description: Male C57BL/6 mice (20-25 g), supplied by the National Center for the Laboratory Animals Production (CENPALAB, Cuba) were used. The conditions of adaptation and maintenance of the animals before carrying out the experiment were similar to those developed in non-limiting Example 4.
At the end of the adaptation period, the animals were randomly distributed according to their body weights in four experimental groups of 10 animals each: two healthy control groups, one administered with a vehicle via the nasal route (G1) and the other with saline solution via. ip (G2); a sick control group, administered with nasal saline and then, with ESC dissolved in saline solution (1.5 mg/kg, ip) (G3) and a treated group, administered with compound 3 prepared according to the formulation of non-limiting Example 10 and after 15 minutes the ESC is administered (1.5 mg/kg, ip) (G4). This experiment was carried out in two experimental series under the same conditions described in order to study the effects of the nasal formulation of compound 3 in two behavioral models: Y-maze in the hidden arm modality and the object discrimination model. […]
The Object Recognition Test (ORT) is a commonly used behavioral test for the investigation of various aspects of learning and memory, particularly recognition memory, in rodent models of CNS disorders. […] The behavior of the animal was recorded using a video camera. […]

CSC(=S)NCCNC(=O)CCC(=O)Nc1cccc2ccccc12 [compound 3, methyl(2-{[4-(1-naphthylamino)-4-oxobutanoyl]amino}ethyl)dithiocarbamate]
discrimination index (DI) of the novel object: No significant differences were observed in the discrimination index
